Measurements published in PubChem BioAssay AID1918945 (Molecular Pharmacology Branch, DTP, NCI, 2023).

Tested on: 883617-216-R-J1-PDC complex spheroid viability
Experiment: Anticancer human tumor 883617-216-R-J1-PDC patient-derived bladder carcinoma cell line growth inhibition
Conditions: for IC50: curve of first compound; for viability, T/C: stronger effect = lower value
Text: Multicellular complex tumor spheroid response to LSD1 Inhibitor Iadademstat in combination with a variety of drugs and investigational agents in selected tumor cell lines
The current study was undertaken to assess response to LSD1 inhibitors in combination with standard-of-care drugs and investigational agents in solid tumor complex spheroid models as well as in the K-562 leukemia. Complex spheroids include a stromal component modeled by human endothelial cells (HUVEC) and fibroblasts modeled by human mesenchymal stem cells (MSCs). The concentration ranges selected for each drug and investigational agent were based upon clinically achievable concentrations if the clinical Cmax of the agent was known.
Compounds. The drugs and investigational agents used in this study are listed on Table 1. All of the agents used, including staurosporine (NSC755774) and gemcitabine (NSC613327), were obtained from the Developmental Therapeutics Program, NCI. FDA-approved anticancer drugs are available from the NCI at http://dtp.nci.nih.gov/branches/dscb/oncology_drugset_explanation.html. Drugs and investigational agents were >95% pure by proton nuclear magnetic resonance (NMR) and liquid chromatography/mass spectrometry (LC/MS). Stock solutions were prepared at 400x in DMSO, stored at -70 degrees C, and diluted in fresh medium prior to their use. The final concentration of DMSO in cell culture wells never exceeded 0.25% (v/v). The FDA-approved anticancer drug set is available from the Developmental Therapeutics Program at https://dtp.cancer.gov/organization/dscb/obtaining/available_plates.htm. All drugs and investigational agents were tested over a range starting from a high concentration at or near the clinical Cmax and decreasing in half-log increments. If the clinical Cmax for an agent had not been determined, the highest concentration tested was 10 microM.
Cell Lines. The patient-derived cancer cell (PDC) lines: 292921-168-R-J2-PDC, K24384-001-R-PDC, and 521955-158-R2-J5-PDC pancreatic carcinomas, 556581-035-R-J1 ovarian carcinoma, 324938-238-R-J1-PDC, 855422-203-R-J1-PDC and 883617-216-R-J1-PDC urothelial bladder carcinomas, 743489-274-T-PDC renal cell carcinoma, 138582-R-J1 Merkel cell tumor, K60290-347-R-J1 and K57222-313-R-J1-PDC glioblastomas, 653999-131-R-J2-PDC, LG0703-F948-PDC, and 349418-098-R-PDC non-small cell lung carcinomas, 885512-296-R-J2-PDC, 171881-019-R-J1-PDC breast carcinomas and 186277-243-T-J2-PDC and 233499-124-R-J2-PDC colon carcinomas were obtained from the NCI Patient-Derived Models Repository (PDMR, https://pdmr.cancer.gov). The established cell lines NCI/ADR-RES (RRID:CVCL_14520 and OVCAR-5 (RRID:CVCL_1628) ovarian carcinomas, 786-O (RRID:CVCL_1051) and A498 (RRID:CVCL_A498) renal cell carcinoma, NCI-H211 (ATCC, cat. CRL-5824; RRID:CVCL_1529), NCI-H196 (ATCC, cat. CRL-5823, RRID:CVCL_1509), SW 1271 (ATCC, cat. CRL-2177, RRID:CVCL_1716) and NCI-H1876 (ATCC, cat. CRL-5902, RRID:CVCL_1503) small cell lung carcinomas, MDA-MB-231 (RRID:CVCL_0062) and MDA-MB-468 (RRID:CVCL_0419)breast carcinomas (10-12). Pooled donor human umbilical vein endothelial cells (HUVEC, Lonza, cat. CC-2519) and human mesenchymal stem cells (hMSC, Lonza, cat. PT-2501) were purchased from Lonza (Walkersville, MD).
Cell Culture. All cells were maintained in an incubator at 37 degrees C and 5% CO2 with 95% humidity. The PDC lines were cultured according to standard operating procedures established by the NCI PDMR (https://pdmr.cancer.gov). Briefly all PDCs were thawed and cultured in Matrigel-coated flasks prepared with a working solution of 1X Ham's F-12 nutrient mix, without supplementation (Invitrogen, Waltham, MA, cat. 11765054), 100 U/mL penicillin-streptomycin (Invitrogen, cat. 15140122), and 2.5% Matrigel (Corning Inc., Corning, NY, cat. 354248) for the first three passages. […]
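Note: exposure lasted seven days after three days of spheroid growth.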
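Throughout, for viability, T/C: 100% = DMSO vehicle control luminescence.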

Work on `CC[C@@]1(O)C(=O)OCc2c1cc1n(c2=O)Cc2cc3c(CN(C)C)c(O)ccc3nc2-1` + NC1CC1c1ccc(-c2cccc(O)c2)cc1 yielded an IC50 (second compound 0.1 µM) of 2.14 nM, an IC50 (second compound 0.316 µM) of 2.24 nM and an IC50 (second compound 1 µM) of 2.07 nM. It also gave an IC50 (second compound 3.16 µM) of 1.42 nM, an IC50 (second compound 10 µM) of 0.862 nM and a viability, T/C (second compound 0.1 µM, first compound 0.000316 µM) of 97.4%. For the same molecule, the viability, T/C (second compound 0.1 µM, first compound 0.001 µM) was 61.4%, the viability, T/C (second compound 0.1 µM, first compound 0.00316 µM) was 45.5% and the viability, T/C (second compound 0.1 µM, first compound 0.01 µM) was 30.5%. The viability, T/C (second compound 0.1 µM, first compound 0.0316 µM) was 24.3%, the viability, T/C (second compound 0.1 µM, first compound 0.1 µM) was 19.4% and the viability, T/C (second compound 0.316 µM, first compound 0.000316 µM) was 94.8%. For the same molecule, the viability, T/C (second compound 0.316 µM, first compound 0.001 µM) was 73.4%, the viability, T/C (second compound 0.316 µM, first compound 0.00316 µM) was 37.9% and the viability, T/C (second compound 0.316 µM, first compound 0.01 µM) was 30.4%. It also gave a viability, T/C (second compound 0.316 µM, first compound 0.0316 µM) of 22.9%, a viability, T/C (second compound 0.316 µM, first compound 0.1 µM) of 19.1% and a viability, T/C (second compound 1 µM, first compound 0.000316 µM) of 93.7%. For the same molecule, the viability, T/C (second compound 1 µM, first compound 0.001 µM) was 71.5%, the viability, T/C (second compound 1 µM, first compound 0.00316 µM) was 36.9% and the viability, T/C (second compound 1 µM, first compound 0.01 µM) was 27.2%. For the same molecule, the viability, T/C (second compound 1 µM, first compound 0.0316 µM) was 24.6%, the viability, T/C (second compound 1 µM, first compound 0.1 µM) was 21.2% and the viability, T/C (second compound 3.16 µM, first compound 0.000316 µM) was 93.8%. For the same molecule, the viability, T/C (second compound 3.16 µM, first compound 0.001 µM) was 57.6%, the viability, T/C (second compound 3.16 µM, first compound 0.00316 µM) was 32.2% and the viability, T/C (second compound 3.16 µM, first compound 0.01 µM) was 27.9%. It also gave a viability, T/C (second compound 3.16 µM, first compound 0.0316 µM) of 24.2%, a viability, T/C (second compound 3.16 µM, first compound 0.1 µM) of 17.9% and a viability, T/C (second compound 10 µM, first compound 0.000316 µM) of 76.1%. The viability, T/C (second compound 10 µM, first compound 0.001 µM) was 42.2%, the viability, T/C (second compound 10 µM, first compound 0.00316 µM) was 35.3% and the viability, T/C (second compound 10 µM, first compound 0.01 µM) was 26.6%. The viability, T/C (second compound 10 µM, first compound 0.0316 µM) was 24.2% and the viability, T/C (second compound 10 µM, first compound 0.1 µM) was 16.9%.
